Tested on: C666-1 cells
Assay: C666-1 cell viability single concentration (50 μM) inhibition rate (Resazurin)
Format: cell-based
Conditions: Homo sapiens, C6661, 72 h, 50 μM compound, 72 hours, C666-1 cells; read-out: C666-1 cell viability single concentration (50 μM) inhibition rate, Ratio* (Inh %)
Method in brief: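 EBV-positive C666-1 cells (5×10^3/well), pre-cultured 24 h, were exposed to compound at 50 μmol/L final for 72 h at 37° C, 5% CO2, in duplicate. Viability by resazurin (3 h, ex 560/em 590 nm); inhibition rate computed relative to DMSO control and medium-only blank.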

SMILES | inhibition at 50 µM [%]
O=C(O)c1cccc(N2CC(Oc3ccc(Oc4ccc(F)cc4)cc3)C2)c1-n1cccc1 [Example 203, 3-(3-(4-(4-fluorophenoxy)phenoxy)azetidin-1-yl)-2-(1H-pyrrol-1-yl)benzoic acid] | 10 to 30
COC(=O)c1cccc(N2CC(Oc3cc(F)c(Oc4ccccc4)c(F)c3)C2)c1-n1cccc1 [Example 204, Methyl 3-(3-(3,5-difluoro-4-phenoxyphenoxy)azetidin-1-yl)-2-(1H-pyrrol-1-yl)benzoate] | < 10
O=C(O)c1cccc(N2CC(Oc3cc(F)c(Oc4ccccc4)c(F)c3)C2)c1-n1cccc1 [Example 205, 3-(3-(3,5-difluoro-4-phenoxyphenoxy)azetidin-1-yl)-2-(1H-pyrrol-1-yl)benzoic acid] | < 10
COC(=O)c1cccc(N2CC(Oc3ccc(Oc4ccc(C(C)=O)cc4)cc3)C2)c1-n1cccc1 [Example 206, Methyl 3-(3-(4-(4-acetylphenoxy)phenoxy)azetidin-1-yl)-2-(1H-pyrrol-1-yl)benzoate] | < 10
CC(=O)c1ccc(Oc2ccc(OC3CN(c4cccc(C(=O)O)c4-n4cccc4)C3)cc2)cc1 [Example 207, 3-(3-(4-(4-acetylphenoxy)phenoxy)azetidin-1-yl)-2-(1H-pyrrol-1-yl)benzoic acid] | 10 to 30
COC(=O)c1cccc(N2CC(Oc3ccc(Sc4ccccc4)cc3)C2)c1-n1cccc1 [Example 208, Methyl 3-(3-(4-(thiophenyl)phenoxy)azetidin-1-yl)-2-(1H-pyrrol-1-yl)benzoate] | < 10
O=C(O)c1cccc(N2CC(Oc3ccc(Sc4ccccc4)cc3)C2)c1-n1cccc1 [Example 209, 3-(3-(4-(thiophenyl)phenoxy)azetidin-1-yl)-2-(1H-pyrrol-1-yl)benzoic acid] | 10 to 30
COC(=O)c1cccc(N2CC(Oc3ccc(Oc4ccc(C#N)cc4)cc3)C2)c1-n1cccc1 [Example 210, Methyl 3-(3-(4-(4-cyanophenoxy)phenoxy)azetidin-1-yl)-2-(1H-pyrrol-1-yl)benzoate] | 10 to 30
N#Cc1ccc(Oc2ccc(OC3CN(c4cccc(C(=O)O)c4-n4cccc4)C3)cc2)cc1 [Example 211, 3-(3-(4-(4-cyanophenoxy)phenoxy)azetidin-1-yl)-2-(1H-pyrrol-1-yl)benzoic acid] | < 10
COC(=O)c1cccc(N2CC(Oc3ccc(Oc4ccc(S(C)(=O)=O)cc4)cc3)C2)c1-n1cccc1 [Example 212, Methyl 3-(3-(4-(4-(methylsulfonyl)phenoxy)phenoxy)azetidin-1-yl)-2-(1H-pyrrol-1-yl)benzoate] | 10 to 30
CS(=O)(=O)c1ccc(Oc2ccc(OC3CN(c4cccc(C(=O)O)c4-n4cccc4)C3)cc2)cc1 [Example 213, 3-(3-(4-(4-(methylsulfonyl)phenoxy)phenoxy)azetidin-1-yl)-2-(1H-pyrrol-1-yl)benzoic acid] | < 10
CCC(=O)c1ccc(OC2CN(c3cccc(C(=O)OC)c3-n3cccc3)C2)cc1 [Example 214, Methyl 3-(3-(4-propionylphenoxy)azetidin-1-yl)-2-(1H-pyrrol-1-yl)benzoate] | < 10
CCC(=O)c1ccc(OC2CN(c3cccc(C(=O)O)c3-n3cccc3)C2)cc1 [Example 215, 3-(3-(4-propionylphenoxy)azetidin-1-yl)-2-(1H-pyrrol-1-yl)benzoic acid] | < 10
COC(=O)c1cccc(N2CC(Oc3ccc(C(=O)C(C)C)cc3)C2)c1-n1cccc1 [Example 216, Methyl 3-(3-(4-isobutyrylphenoxy)azetidin-1-yl)-2-(1H-pyrrol-1-yl)benzoate] | < 10
CC(C)C(=O)c1ccc(OC2CN(c3cccc(C(=O)O)c3-n3cccc3)C2)cc1 [Example 217, 3-(3-(4-isobutyrylphenoxy)azetidin-1-yl)-2-(1H-pyrrol-1-yl)benzoic acid] | < 10
COCCOc1ccc(OC2CN(c3cccc(C(=O)OC)c3-n3cccc3)C2)cc1OC [Example 218, Methyl 3-(3-(3-methoxy-4-(2-methoxyethoxy)phenoxy)azetidin-1-yl)-2-(1H-pyrrol-1-yl)benzoate] | 10 to 30
COCCOc1ccc(OC2CN(c3cccc(C(=O)O)c3-n3cccc3)C2)cc1OC [Example 219, 3-(3-(3-methoxy-4-(2-methoxyethoxy)phenoxy)azetidin-1-yl)-2-(1H-pyrrol-1-yl)benzoic acid] | < 10
COC(=O)c1cccc(N2CC(Oc3ccc(OCCNC(C)=O)c(OC)c3)C2)c1-n1cccc1 [Example 220, Methyl 3-(3-(4-(2-acetylaminoethoxy)-3-methoxyphenoxy)azetidin-1-yl)-2-(1H-pyrrol-1-yl)benzoate] | 10 to 30
COc1cc(OC2CN(c3cccc(C(=O)O)c3-n3cccc3)C2)ccc1OCCNC(C)=O [Example 221, 3-(3-(4-(2-acetylaminoethoxy)-3-methoxyphenoxy)azetidin-1-yl)-2-(1H-pyrrol-1-yl)benzoic acid] | < 10

SMILES | inhibition at 50 µM [%]
COC(=O)c1cccc(N2CC(Oc3cccc(Oc4ccccc4)c3)C2)c1-n1cccc1 [Example 222, Methyl 3-(3-(3-phenoxyphenoxy)azetidin-1-yl)-2-(1H-pyrrol-1-yl)benzoate] | < 10
O=C(O)c1cccc(N2CC(Oc3cccc(Oc4ccccc4)c3)C2)c1-n1cccc1 [Example 223, 3-(3-(3-phenoxyphenoxy)azetidin-1-yl)-2-(1H-pyrrol-1-yl)benzoic acid] | < 10
COCCOc1ccc(OC2CN(c3cccc(C(=O)OC)c3-n3cccc3)C2)cc1 [Example 224, Methyl 3-(3-(4-(2-methoxyethoxy)phenoxy)azetidin-1-yl)-2-(1H-pyrrol-1-yl)benzoate] | < 10
COCCOc1ccc(OC2CN(c3cccc(C(=O)O)c3-n3cccc3)C2)cc1 [Example 225, 3-(3-(4-(2-methoxyethoxy)phenoxy)azetidin-1-yl)-2-(1H-pyrrol-1-yl)benzoic acid] | 10 to 30
COC(=O)c1cccc(N2CC(Oc3ccc(NC(=S)Nc4ccc(Cl)cc4)cc3)C2)c1-n1cccc1 [Example 226, Methyl 3-(3-(4-(3-(4-chlorophenyl)thioureido)phenoxy)azetidin-1-yl)-2-(1H-pyrrol-1-yl)benzoate] | 10 to 30
COC(=O)c1cccc(N2CC(Oc3ccc(NC(=S)Nc4cccc(Cl)c4)cc3)C2)c1-n1cccc1 [Example 227, Methyl 3-(3-(4-(3-(3-chlorophenyl)thioureido)phenoxy)azetidin-1-yl)-2-(1H-pyrrol-1-yl)benzoate] | 10 to 30
COC(=O)c1cccc(N2CC(Oc3ccc(NC(=S)Nc4cccc(C#N)c4)cc3)C2)c1-n1cccc1 [Example 228, Methyl 3-(3-(4-(3-(3-cyanophenyl)thioureido)phenoxy)azetidin-1-yl)-2-(1H-pyrrol-1-yl)benzoate] | > 50
COC(=O)c1cccc(N2CC(Oc3ccc(NC(=O)Nc4ccc(C(F)(F)F)cc4)cc3)C2)c1-n1cccc1 [Example 229, Methyl 3-(3-(4-(3-(4-(trifluoromethyl)phenyl)ureido)phenoxy)azetidin-1-yl)-2-(1H-pyrrol-1-yl)benzoate] | > 50
O=C(Nc1ccc(OC2CN(c3cccc(C(=O)O)c3-n3cccc3)C2)cc1)Nc1ccc(C(F)(F)F)cc1 [Example 230, 3-(3-(4-(3-(4-(trifluoromethyl)phenyl)ureido)phenoxy)azetidin-1-yl)-2-(1H-pyrrol-1-yl)benzoic acid] | 10 to 30
O=C(NCc1cccs1)c1cccc(N2CC(Oc3ccc(CO)cc3)C2)c1-n1cccc1 [Example 231, N-(thiophen-2-yl-methyl)-3-(3-(4-(hydroxymethyl)phenoxy)azetidin-1-yl)-2-(1H-pyrrol-1-yl)benzamide] | 10 to 30
CCOCc1ccc(OC2CN(c3cccc(C(=O)OCC)c3-n3cccc3)C2)cc1 [Example 232, Ethyl 3-(3-(4-(ethoxymethyl)phenoxy)azetidin-1-yl)-2-(1H-pyrrol-1-yl)benzoate] | < 10
CCOCc1ccc(OC2CN(c3cccc(C(=O)O)c3-n3cccc3)C2)cc1 [Example 233, 3-(3-(4-(ethoxymethyl)phenoxy)azetidin-1-yl)-2-(1H-pyrrol-1-yl)benzoic acid] | < 10
COC(=O)c1cccc(N2CC(Oc3ccc(CN4CCOCC4)cc3)C2)c1-n1cccc1 [Example 235, Methyl 3-(3-(4-(morpholinylmethyl)phenoxy)azetidin-1-yl)-2-(1H-pyrrol-1-yl)benzoate] | 30 to 50
COC(=O)c1cccc(N2CC(Oc3ccc(COC(=S)Nc4ccc(Cl)cc4)cc3)C2)c1-n1cccc1 [Example 236, Methyl 3-(3-(4-((((4-chlorophenyl)thiocarbamoyl)oxy)methyl)phenoxy)azetidin-1-yl)-2-(1H-pyrrol-1-yl)benzoate] | 10 to 30
O=C(Nc1ccc(Cl)cc1)OCc1ccc(OC2CN(c3cccc(C(=O)O)c3-n3cccc3)C2)cc1 [Example 237] | < 10
CCNC(=S)OCc1ccc(OC2CN(c3cccc(C(=O)OC)c3-n3cccc3)C2)cc1 [Example 238] | 10 to 30
CCNC(=S)OCc1ccc(OC2CN(c3cccc(C(=O)O)c3-n3cccc3)C2)cc1 [Example 239] | < 10
COC(=O)c1cccc(N2CC(Oc3ccc(COc4ccc(Cl)cc4)cc3)C2)c1-n1cccc1 [Example 240, Methyl 3-(3-(4-((4-chlorophenoxy)methyl)phenoxy)azetidin-1-yl)-2-(1H-pyrrol-1-yl)benzoate] | < 10
O=C(O)c1cccc(N2CC(Oc3ccc(COc4ccc(Cl)cc4)cc3)C2)c1-n1cccc1 [Example 241, 3-(3-(4-((4-chlorophenoxy)methyl)phenoxy)azetidin-1-yl)-2-(1H-pyrrol-1-yl)benzoic acid] | < 10

From US20230157996A1, “SMALL-MOLECULE INHIBITOR TARGETING EB VIRUS NUCLEAR ANTIGEN PROTEIN, PREPARATION METHOD AND USE THEREOF” (priority 2020, published 2023)
